Measurements from patent US20230295197A1, “STAT5 and STAT6 Degraders and Uses Thereof” (REGENTS OF THE UNIVERSITY OF MICHICAN, priority 2022, published 2023).
Like-named read-outs stand apart in the source and are kept apart here. *1 amine or outer side, *2 acyl side, *3 side chain or, on linkers, in order; H or OH if unused. Where a SMILES comes first, the peptide text is derived from it. [ ]: non-standard residue; d: D form. The star is where a group is joined. Benzothienyl2CO(5-CF2PO3H2) = O=C(c1cc2cc(C(F)(F)P(=O)(O)O)ccc2s1)*; βAla(N-(4-Br-phenyl)) = O=C(CCN(c1ccc(Br)cc1)[*:1])[*:2]; NHBn(4-(4-Me-thiazol-5-yl)) = Cc1ncsc1-c1ccc(CN*)cc1; Hyp = O=C(O)[C@@H]1C[C@@H](O)CN1; Tle = CC(C)(C)[C@H](N)C(=O)O; Aoc = NCCCCCCCC(=O)O; Ahp = NCCCCCCC(=O)O

Biological target: T1, STAT6 (Homo sapiens, UniProt P42226)
T1 construct: endogenous in cells; host or cells: MOLM-16, KU-812, SKNO1, MB231, L1236
T1 sequence (P42226 1-847): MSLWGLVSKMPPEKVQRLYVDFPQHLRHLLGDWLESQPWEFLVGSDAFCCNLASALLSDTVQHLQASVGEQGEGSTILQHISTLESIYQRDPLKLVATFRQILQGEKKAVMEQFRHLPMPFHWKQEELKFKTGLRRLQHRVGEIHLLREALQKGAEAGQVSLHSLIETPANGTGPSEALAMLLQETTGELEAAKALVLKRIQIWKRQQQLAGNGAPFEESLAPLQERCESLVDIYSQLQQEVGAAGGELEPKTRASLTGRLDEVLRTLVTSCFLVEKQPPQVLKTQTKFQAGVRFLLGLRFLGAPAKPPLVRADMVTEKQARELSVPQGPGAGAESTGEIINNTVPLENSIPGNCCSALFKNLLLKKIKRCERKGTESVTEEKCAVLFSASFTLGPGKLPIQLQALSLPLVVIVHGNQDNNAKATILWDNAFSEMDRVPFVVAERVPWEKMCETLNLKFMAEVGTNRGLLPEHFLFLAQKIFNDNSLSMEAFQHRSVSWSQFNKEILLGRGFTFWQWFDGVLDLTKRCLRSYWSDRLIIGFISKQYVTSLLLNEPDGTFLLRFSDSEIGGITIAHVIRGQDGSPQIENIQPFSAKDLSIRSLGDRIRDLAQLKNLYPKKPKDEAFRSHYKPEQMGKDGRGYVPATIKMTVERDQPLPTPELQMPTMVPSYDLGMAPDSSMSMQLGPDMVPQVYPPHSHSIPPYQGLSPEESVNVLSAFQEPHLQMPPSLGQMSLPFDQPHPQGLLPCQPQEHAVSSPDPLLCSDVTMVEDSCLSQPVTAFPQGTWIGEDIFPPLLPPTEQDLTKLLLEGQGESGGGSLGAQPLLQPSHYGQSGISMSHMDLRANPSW
Assay: Immunoblotting (Western blot) analysis of STAT6 degradation efficiency of degraders in treated cells
Type: cell-based
Summary of the method: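 About 1 million cells per point, grown in 10% FBS medium at 37 °C/5% CO2, were exposed to compound at the indicated concentrations and times, then lysed in RIPA buffer with protease and phosphatase inhibitors. Equal protein (20-40 μg) was resolved by SDS-PAGE, blotted to PVDF, and probed with anti-STAT5, anti-STAT6 and anti-GAPDH antibodies.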

[1] = read-out: DC50 S6 MB231, MB231 cells
[2] = L1236 cells, read-out: DC50 S6 L1236
[3] = MB231 cells, read-out: DC50 S6 MB231
[4] = MOLM-16 cells, class symbols, read-out: DC50 S6 MOLM-16
[5] = MOLM-16 cells, numeric bound, read-out: DC50 S6 MOLM-16

Compound	DC50 [2] [µM]	DC50 [4] [µM]	also measured
Cc1ncsc1-c1ccc(CNC(=O)[C@@H]2C[C@@H](O)CN2C(=O)[C@@H](NC(=O)CCCCCCCNC(=O)CCN(C(=O)[C@@H]2CCCN2C(=O)[C@@H](NC(=O)c2cc3cc(C(F)(F)P(=O)(O)O)ccc3s2)C(C)(C)C)c2ccc(Br)cc2)C(C)(C)C)cc1 [Compound 398] ({Benzothienyl2CO(5-CF2PO3H2)}-[Tle]P[βAla(N-(4-Br-phenyl))][Aoc][Tle][Hyp]-{NHBn(4-(4-Me-thiazol-5-yl))})	–	–	DC50 [1]: > 10 µM
Cc1ncsc1-c1ccc(CNC(=O)[C@@H]2C[C@@H](O)CN2C(=O)[C@@H](NC(=O)CCCCCCCCCNC(=O)CO[C@@H]2C[C@@H](C(=O)N(C)c3ccc(Br)cc3)N(C(=O)[C@@H](NC(=O)c3cc4cc(C(F)(F)P(=O)(O)O)ccc4s3)C(C)(C)C)C2)C(C)(C)C)cc1 [Compound 421, ((2-(((S)-1-((2S,4R)-2-((4-bromophenyl)(methyl)carbamoyl)-4-(2-((10-(((S)-1-((2S,4R)-4-hydroxy-2-((4-(4-methylthiazol-5-yl)benzyl)carbamoyl)pyrrolidin-1-yl)-3,3-dimethyl-1-oxobutan-2-yl)amino)-10-oxodecyl)amino)-2-oxoethoxy)pyrrolidin-1-yl)-3,3-dimethyl-1-oxobutan-2-yl)carbamoyl)benzo[b]thiophen-5-yl)difluoromethyl)phosphonic acid]	> 10	–	DC50 [3]: > 10 µM
CC(C)(C)[C@H](NC(=O)c1cc2cc(C(F)(F)P(=O)(O)O)ccc2s1)C(=O)N1CCC[C@H]1C(=O)N(CCC(=O)NCCCCCCCCCC#Cc1cccc2c1CN(C1CCC(=O)NC1=O)C2=O)c1ccc(Br)cc1 (stereo partly drawn) [Compound 402, ((2-(((2S)-1-((2S)-2-((4-bromophenyl)(3-((11-(2-(2,6-dioxopiperidin-3-yl)-1-oxoisoindolin-4-yl)undec-10-yn-1-yl)amino)-3-oxopropyl)carbamoyl)pyrrolidin-1-yl)-3,3-dimethyl-1-oxobutan-2-yl)carbamoyl)benzo[b]thiophen-5-yl)difluoromethyl)phosphonic acid]	–	–	DC50 [3]: > 10 µM
Cc1ncsc1-c1ccc([C@H](C)NC(=O)[C@@H]2C[C@@H](O)CN2C(=O)[C@@H](NC(=O)CCCCCCCCCNC(=O)CC(=O)N2CCN(C(=O)[C@@H](NC(=O)c3cc4cc(C(F)(F)P(=O)(O)O)ccc4s3)C(C)(C)C)[C@H](C(=O)N3CCO[C@H](c4ccccc4)C3)C2)C(C)(C)C)cc1 [Compound 451, (difluoro(2-(((S)-1-((S)-4-(3-((10-(((S)-1-((2S,4R)-4-hydroxy-2-(((S)-1-(4-(4-methylthiazol-5-yl)phenyl)ethyl)carbamoyl)pyrrolidin-1-yl)-3,3-dimethyl-1-oxobutan-2-yl)amino)-10-oxodecyl)amino)-3-oxopropanoyl)-2-((R)-2-phenylmorpholine-4-carbonyl)piperazin-1-yl)-3,3-dimethyl-1-oxobutan-2-yl)carbamoyl)benzo[b]thiophen-5-yl)methyl)phosphonic acid]	> 10	> 10	–
Cc1ncsc1-c1ccc(CNC(=O)[C@@H]2C[C@@H](O)CN2C(=O)[C@@H](NC(=O)CCCCCCNC(=O)CCN(C(=O)[C@@H]2CCCN2C(=O)[C@@H](NC(=O)c2cc3cc(C(F)(F)P(=O)(O)O)ccc3s2)C(C)(C)C)c2ccc(Br)cc2)C(C)(C)C)cc1 [Compound 399] ({Benzothienyl2CO(5-CF2PO3H2)}-[Tle]P[βAla(N-(4-Br-phenyl))][Ahp][Tle][Hyp]-{NHBn(4-(4-Me-thiazol-5-yl))})	–	–	DC50 [1]: > 10 µM
CC(C)(C)[C@H](NC(=O)C1=Cc2cc(C(F)(F)P(=O)(O)O)ccc2C1)C(=O)N1CSN(C(=O)CC(=O)NCC#Cc2cccc3c2C(=O)N(C2CCC(=O)NC2=O)C3=O)C[C@H]1C(=O)N1CCC[C@H](c2ccccc2)C1 (stereo partly drawn) [Compound 521, ((2-(((2S)-1-((4S)-2-(3-((3-(2-(2,6-dioxopiperidin-3-yl)-1,3-dioxoisoindolin-4-yl)prop-2-yn-1-yl)amino)-3-oxopropanoyl)-4-((R)-3-phenylpiperidine-1-carbonyl)-1,2,5-thiadiazinan-5-yl)-3,3-dimethyl-1-oxobutan-2-yl)carbamoyl)-1H-inden-5-yl)difluoromethyl)phosphonic acid]	–	> 10	–
Cc1ncsc1-c1ccc([C@H](C)NC(=O)[C@@H]2C[C@@H](O)CN2C(=O)[C@H](NC(=O)CNC(=O)CO[C@H]2C[C@@H](C(=O)N3CCO[C@H](c4ccccc4)C3)N(C(=O)[C@@H](NC(=O)c3cc4cc(C(F)(F)P(=O)(O)O)ccc4s3)C(C)(C)C)C2)C(C)(C)C)cc1 [Compound 425, (difluoro(2-(((S)-1-((2S,4S)-4-(2-((2-(((R)-1-((2S,4R)-4-hydroxy-2-(((S)-1-(4-(4-methylthiazol-5-yl)phenyl)ethyl)carbamoyl)pyrrolidin-1-yl)-3,3-dimethyl-1-oxobutan-2-yl)amino)-2-oxoethyl)amino)-2-oxoethoxy)-2-((R)-2-phenylmorpholine-4-carbonyl)pyrrolidin-1-yl)-3,3-dimethyl-1-oxobutan-2-yl)carbamoyl)benzo[b]thiophen-5-yl)methyl)phosphonic acid]	> 10	> 10	–
Cc1ncsc1-c1ccc([C@H](C)NC(=O)[C@@H]2C[C@@H](O)CN2C(=O)[C@@H](NC(=O)CCCCNC(=O)CC(=O)N2CCN(C(=O)[C@@H](NC(=O)c3cc4cc(C(F)(F)P(=O)(O)O)ccc4s3)C(C)(C)C)[C@H](C(=O)N3CCC[C@H](c4ccccc4)C3)C2)C(C)(C)C)cc1 [Compound 455, (difluoro(2-(((S)-1-((S)-4-(3-((5-(((S)-1-((2S,4R)-4-hydroxy-2-(((S)-1-(4-(4-methylthiazol-5-yl)phenyl)ethyl)carbamoyl)pyrrolidin-1-yl)-3,3-dimethyl-1-oxobutan-2-yl)amino)-5-oxopentyl)amino)-3-oxopropanoyl)-2-((R)-3-phenylpiperidine-1-carbonyl)piperazin-1-yl)-3,3-dimethyl-1-oxobutan-2-yl)carbamoyl)benzo[b]thiophen-5-yl)methyl)phosphonic acid]	> 10	> 10	–
CC(C)(C)[C@H](NC(=O)c1cc2cc(C(F)(F)P(=O)(O)O)ccc2s1)C(=O)N1C[C@@H](OCC(=O)NCCCCCCCCCC#Cc2ccc3c(c2)C(=O)N(C2CCC(=O)NC2=O)C3=O)C[C@H]1C(=O)N1CCO[C@H](c2ccccc2)C1 (stereo partly drawn) [Compound 492, ((2-(((2S)-1-((2S,4S)-4-(2-((11-(2-(2,6-dioxopiperidin-3-yl)-1,3-dioxoisoindolin-5-yl)undec-10-yn-1-yl)amino)-2-oxoethoxy)-2-((R)-2-phenylmorpholine-4-carbonyl)pyrrolidin-1-yl)-3,3-dimethyl-1-oxobutan-2-yl)carbamoyl)benzo[b]thiophen-5-yl)difluoromethyl)phosphonic acid]	–	> 10	–
CC(C)(C)[C@H](NC(=O)c1cc2cc(C(F)(F)P(=O)(O)O)ccc2s1)C(=O)N1C[C@@H](OCCCCCNc2cccc3c2CN(C2CCC(=O)NC2=O)C3=O)C[C@H]1C(=O)N1CCO[C@H](c2ccccc2)C1 (stereo partly drawn) [Compound 598, ((2-(((2S)-1-((2S,4S)-4-((5-((2-(2,6-dioxopiperidin-3-yl)-1-oxoisoindolin-4-yl)amino)pentyl)oxy)-2-((R)-2-phenylmorpholine-4-carbonyl)pyrrolidin-1-yl)-3,3-dimethyl-1-oxobutan-2-yl)carbamoyl)benzo[b]thiophen-5-yl)difluoromethyl)phosphonic acid]	–	–	DC50 [5]: > 0.3 µM
CC(C)(C)[C@H](NC(=O)c1cc2cc(C(F)(F)P(=O)(O)O)ccc2s1)C(=O)N1C[C@@H](OCCCCCCCCCCC#Cc2cccc3c2CN(C2CCC(=O)NC2=O)C3=O)C[C@H]1C(=O)N1CCO[C@H](c2ccccc2)C1 (stereo partly drawn) [Compound 585, ((2-(((2S)-1-((2S,4S)-4-((12-(2-(2,6-dioxopiperidin-3-yl)-1-oxoisoindolin-4-yl)dodec-11-yn-1-yl)oxy)-2-((R)-2-phenylmorpholine-4-carbonyl)pyrrolidin-1-yl)-3,3-dimethyl-1-oxobutan-2-yl)carbamoyl)benzo[b]thiophen-5-yl)difluoromethyl)phosphonic acid]	> 10	–	DC50 [5]: > 0.3 µM
CC(C)(C)[C@H](NC(=O)c1cc2cc(C(F)(F)P(=O)(O)O)ccc2s1)C(=O)N1CCN(C(=O)CC(=O)NCCCCCC#Cc2cccc3c2C(=O)N(C2CCC(=O)NC2=O)C3=O)C[C@H]1C(=O)N1CCC[C@H](c2ccccc2)C1 (stereo partly drawn) [Compound 529, ((2-(((2S)-1-((2S)-4-(3-((7-(2-(2,6-dioxopiperidin-3-yl)-1,3-dioxoisoindolin-4-yl)hept-6-yn-1-yl)amino)-3-oxopropanoyl)-2-((R)-3-phenylpiperidine-1-carbonyl)piperazin-1-yl)-3,3-dimethyl-1-oxobutan-2-yl)carbamoyl)benzo[b]thiophen-5-yl)difluoromethyl)phosphonic acid]	–	> 10	–
